Reference: US9981972B2, “N-hydroxy bicyclic hydantoin carbamates as tools for identification of serine hydrolase targets” (ABIDE THERAPEUTICS, INC., priority 2014, dated 2018)

How the values were obtained:
Type in all cases: biochemical
human LYPLA2 = biological target: T1, human LYPLA2 (Homo sapiens, UniProt O95372); experiment: IC50 by gel-based competitive ABPP in vitro, soluble HeLa cell proteome; settings: HeLa cell lysates, FP-Rh; read-out: human LYPLA2 IC50 in vitro
T1 construct: endogenous human LYPLA1/2 in a HeLa soluble proteome; endogenous in cells; host or cells: HeLa (soluble proteome in vitro; cultured cells in situ)
T1 sequence (O95372 whole entry): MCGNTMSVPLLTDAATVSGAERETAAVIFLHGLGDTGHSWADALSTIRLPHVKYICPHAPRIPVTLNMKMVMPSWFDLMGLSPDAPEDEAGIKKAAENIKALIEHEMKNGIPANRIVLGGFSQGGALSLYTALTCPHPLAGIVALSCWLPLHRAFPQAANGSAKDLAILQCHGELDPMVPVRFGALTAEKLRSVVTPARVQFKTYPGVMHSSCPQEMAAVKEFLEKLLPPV

human LYPLA1 = biological target: T2, human LYPLA1 (Homo sapiens, UniProt O75608); experiment: as above; settings: HeLa cell lysates, FP-Rh; read-out: human LYPLA1 IC50 in vitro
T2 construct: endogenous human LYPLA1/2 in a HeLa soluble proteome; endogenous in cells; host or cells: HeLa (soluble proteome in vitro; cultured cells in situ)
T2 sequence (O75608 whole entry): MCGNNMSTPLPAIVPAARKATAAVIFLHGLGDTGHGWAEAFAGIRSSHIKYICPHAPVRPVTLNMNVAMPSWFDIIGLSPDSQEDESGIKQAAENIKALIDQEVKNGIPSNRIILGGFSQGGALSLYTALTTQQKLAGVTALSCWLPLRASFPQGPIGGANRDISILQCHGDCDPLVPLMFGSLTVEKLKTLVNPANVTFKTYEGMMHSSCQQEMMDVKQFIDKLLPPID

ABHD6 = biological target: T3, ABHD6 (Mus musculus, UniProt Q8R2Y0); experiment: Gel-based competitive ABPP in vitro, mouse brain membrane proteome; settings: anti-target, mouse brain membrane proteome; read-out: ABHD6 IC50
T3 construct: from tissue; host or cells: mouse brain, membrane fraction
T3 sequence (Q8R2Y0 1-336): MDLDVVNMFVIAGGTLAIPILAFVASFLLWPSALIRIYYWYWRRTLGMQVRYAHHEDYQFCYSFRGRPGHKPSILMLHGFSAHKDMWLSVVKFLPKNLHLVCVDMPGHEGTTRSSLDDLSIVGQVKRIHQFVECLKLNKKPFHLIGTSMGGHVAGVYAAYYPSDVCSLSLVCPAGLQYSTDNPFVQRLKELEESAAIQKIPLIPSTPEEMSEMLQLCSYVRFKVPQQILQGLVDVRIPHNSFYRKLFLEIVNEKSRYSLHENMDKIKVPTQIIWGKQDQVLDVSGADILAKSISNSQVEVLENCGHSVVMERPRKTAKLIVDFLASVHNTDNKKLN
Method: (§1) Assay Overview: The purpose of this assay was to determine whether test compounds can inhibit LYPLA1 and LYPLA2 in a complex proteomic lysate and to assess anti-target inhibition using a competitive activity-based proteomic profiling (ABPP) assay. In this assay, a complex proteome endogenously expressing LYPLA1/2 was incubated with test compound followed by reaction with a rhodamine-conjugated fluorophosphonate (FP-Rh) serine-hydrolase specific activity-based probe. The reaction products were separated by SDS-PAGE and visualized in-gel using a flatbed fluorescence scanner. The percentage activity remaining was determined by measuring the integrated optical density of the bands. […] Percent inhibition was calculated relative to a DMSO (no compound) control.
(§2) Protocol Summary: Mouse brain membrane proteome (50 μL reaction volume, 1 mg/mL in DPBS) was treated with 0.1-100 μM test compound (1 μL of a 50× stock in DMSO) for 30 minutes at 37° C. FP-Rh (1 μL of 50× stock in DMSO, Thermo #88318) was added to a final concentration of 2 μM. The reactions were incubated for 30 minutes at 25° C., quenched with 16 μL 4×SDS-PAGE loading buffer (reducing), separated by SDS-PAGE and visualized by in-gel fluorescent scanning. The percentage activity remaining was determined by measuring the integrated optical density of the bands relative to a DMSO-only (no compound) control. Assay Cutoff: Compounds with ≥50% inhibition of targets at 1 μM test compound concentration were considered active.
(§3) Assay Overview: The purpose of this assay was to determine IC50 values of powder samples of test compounds for enzyme of interest activity, and anti-targets in a complex proteomic lysate using a gel-based competitive ABPP assay. In this assay, a complex proteome was incubated with test compound followed by reaction with FP-Rh and SDS-PAGE analysis as described above.
(§4) Protocol Summary: Soluble HeLa cell proteome (50 μL reaction volume, 1 mg/mL in DPBS) or mouse brain membrane proteome (50 μL reaction volume, 1 mg/mL in DPBS) was treated with varying concentrations of test compound (1 μL of a 50× stock in DMSO) for 30 minutes at 37° C. FP-Rh (1 μL of 50× stock in DMSO) was added to a final concentration of 2 μM. The reaction was incubated for 30 minutes at 25° C., quenched with 16 μL 4×SDS-PAGE loading buffer (reducing), separated by SDS-PAGE and visualized by in-gel fluorescent scanning. The percentage activity remaining was determined by measuring the integrated optical density of the enzymes of interest, and anti-target bands relative to a DMSO-only (no compound) control. IC50 values were determined from dose-response curves from three replicates at each inhibitor concentration: 1, 10, 100, 1000, 10000 nM and 0.01, 0.1, 1, 10, 100, 1000, 10000, 50000, and 100000 nM.

FAAH = biological target: T4, FAAH (Mus musculus, UniProt O08914); experiment: as above
T4 construct: from tissue; host or cells: mouse brain, membrane fraction
T4 sequence (O08914 1-579): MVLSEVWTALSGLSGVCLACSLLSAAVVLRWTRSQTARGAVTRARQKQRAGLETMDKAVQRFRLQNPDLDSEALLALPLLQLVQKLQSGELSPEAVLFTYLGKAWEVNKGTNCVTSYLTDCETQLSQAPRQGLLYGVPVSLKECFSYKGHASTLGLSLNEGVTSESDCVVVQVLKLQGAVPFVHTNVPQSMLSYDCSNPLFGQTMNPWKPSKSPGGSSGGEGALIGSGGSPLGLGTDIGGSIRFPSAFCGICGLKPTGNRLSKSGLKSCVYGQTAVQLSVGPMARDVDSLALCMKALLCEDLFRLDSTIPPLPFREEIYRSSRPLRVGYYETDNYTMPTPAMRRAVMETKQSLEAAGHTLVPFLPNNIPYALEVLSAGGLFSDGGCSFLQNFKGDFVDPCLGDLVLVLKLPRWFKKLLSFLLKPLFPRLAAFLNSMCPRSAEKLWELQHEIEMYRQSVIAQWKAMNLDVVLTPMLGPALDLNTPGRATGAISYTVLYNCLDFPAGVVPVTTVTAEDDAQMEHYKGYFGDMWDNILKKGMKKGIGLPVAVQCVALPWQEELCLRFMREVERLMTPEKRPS
Method: as §1, §2, §3, §4

An IC50 (human LYPLA2) of 245 nM, an IC50 (human LYPLA1) of 122 nM and an IC50 (ABHD6) of 3.15 nM were found for `O=C(ON1C(=O)C2CN(C(=O)N3CCOCC3)CCN2C1=O)N1CCC(CCc2ccc(Cl)cc2)CC1` (centres unmarked) [Compound 1, 7-(morpholine-4-carbonyl)-1,3-dioxohexahydroimidazo[1,5-a]pyrazin-2(3H)-yl 4-(4-chloro-phenethyl)piperidine-1-carboxylate] in this work. For the same compound, the “selectivity for LYPLA1/2 over FAAH” value (FAAH; LYPLA versus FAAH) was roughly 13 fold and the IC50 (FAAH; anti-target, mouse brain membrane proteome) was 3.15 µM.
